# Experimental data as given in ChEMBL document CHEMBL4038294, “Divergent synthesis of kinase inhibitor derivatives, leading to discovery of selective Gck inhibitors” (Bioorg Med Chem Lett, 2017).
# Tests used:
# [1] = molecular target: T1, Mitogen-activated protein kinase kinase kinase kinase 2 (Homo sapiens) (UniProt Q12851); test: Inhibition of human wild type GCK (M1 to G318 residues) expressed in mammalian expression system at 1 uM by KINOMEScan assay relative to control
# T1 sequence (whole entry): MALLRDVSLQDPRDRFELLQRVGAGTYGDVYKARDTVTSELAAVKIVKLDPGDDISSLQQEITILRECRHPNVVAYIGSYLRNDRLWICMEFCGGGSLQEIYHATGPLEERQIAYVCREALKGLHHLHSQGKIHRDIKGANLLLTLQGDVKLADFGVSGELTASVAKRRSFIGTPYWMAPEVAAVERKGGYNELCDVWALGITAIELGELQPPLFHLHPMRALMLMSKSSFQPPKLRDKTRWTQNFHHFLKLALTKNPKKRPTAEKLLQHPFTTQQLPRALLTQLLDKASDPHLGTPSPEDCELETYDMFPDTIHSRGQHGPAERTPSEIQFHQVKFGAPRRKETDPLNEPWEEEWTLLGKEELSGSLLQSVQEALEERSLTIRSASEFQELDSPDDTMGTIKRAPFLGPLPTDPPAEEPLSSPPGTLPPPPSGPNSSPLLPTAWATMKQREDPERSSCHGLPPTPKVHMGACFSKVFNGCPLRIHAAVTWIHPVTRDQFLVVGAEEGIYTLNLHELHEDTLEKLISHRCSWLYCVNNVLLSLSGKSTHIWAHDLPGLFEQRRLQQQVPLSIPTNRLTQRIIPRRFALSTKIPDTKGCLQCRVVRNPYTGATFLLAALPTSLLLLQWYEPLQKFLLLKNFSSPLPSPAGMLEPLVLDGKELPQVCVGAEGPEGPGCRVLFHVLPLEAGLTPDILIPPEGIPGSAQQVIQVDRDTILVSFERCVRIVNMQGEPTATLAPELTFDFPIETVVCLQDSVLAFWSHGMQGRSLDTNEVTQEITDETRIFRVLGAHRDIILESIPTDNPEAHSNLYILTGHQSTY
# [2] = molecular target: Tyrosine-protein kinase SYK (Homo sapiens) (UniProt P43405); test: Inhibition of human wild type partial length SYK (D354 to N635 residues) expressed in bacterial expression system at 1 uM by KINOMEScan assay relative to control
# [3] = molecular target: T2, Mitogen-activated protein kinase kinase kinase kinase 2 (Homo sapiens, UniProt Q12851); test: Binding affinity to human wild type GCK (M1 to G318 residues) expressed in mammalian expression system by KINOMEScan assay
# T2 sequence (Q12851 whole entry): T1 sequence (whole entry)
SMILES,inhibition [1] [%],inhibition [2] [%],Kd [3] [nM]
NC(=O)c1cccnc1Nc1nc(-c2ccccc2)cc2nccn12,99.5,73,
CCNC(=O)c1cccnc1Nc1nc(-c2ccccc2)cc2nccn12,20,19,
CNC(=O)c1cccnc1Nc1cc(-c2ccc(OC)cc2)cc2[nH]ccc12,2,0,
Cc1ccccc1-c1cc2nccn2c(Nc2ncccc2C(N)=O)n1,94.7,11,100
COc1cccc(-c2cc3nccn3c(Nc3ncccc3C(N)=O)n2)c1,97.2,37,59
Cc1ccc(-c2cc3nccn3c(Nc3ncccc3C(N)=O)n2)cc1,99.2,58,
O=C(NCc1ccccc1)c1cccnc1Nc1nc(-c2ccccc2)cc2nccn12,2,0,
CCCNC(=O)c1cccnc1Nc1nc(-c2ccccc2)cc2nccn12,16,5,
COc1ccccc1-c1cc2nccn2c(Nc2ncccc2C(N)=O)n1,100,61,
COc1ccc(-c2cccc(-c3cc4nccn4c(Nc4ncccc4C(N)=O)n3)c2)cc1,84,5,220
CN(C)C(=O)c1cccnc1Nc1nc(-c2ccccc2)cc2nccn12,58,10,
COc1cc(OC)cc(-c2cc3nccn3c(Nc3ncccc3C(N)=O)n2)c1,100,80,
CCC(C)NC(=O)c1cccnc1Nc1nc(-c2ccccc2)cc2nccn12 (stereo not given),29,1,
COc1ccc(-c2cc3nccn3c(Nc3ncccc3C(N)=O)n2)cc1OC,100,85,
CCCCNC(=O)c1cccnc1Nc1nc(-c2ccccc2)cc2nccn12,8,8,
CNC(=O)c1cccnc1Nc1nc(-c2cccc(OC)c2)cc2nccn12,0,1,
CNC(=O)c1cccnc1Nc1nc(-c2ccc3c(c2)OCO3)cc2nccn12,1,9,
CCCCOc1ccc(-c2cc3nccn3c(Nc3ncccc3C(N)=O)n2)cc1,47,4,
COc1ccc(-c2cc3nccn3c(Nc3ncccc3C(N)=O)n2)cc1,99.1,59,
CCCOc1ccc(-c2cc3nccn3c(Nc3ncccc3C(N)=O)n2)cc1,86,51,
CC(C)NC(=O)c1cccnc1Nc1nc(-c2ccccc2)cc2nccn12,0,0,
Cc1cccc(-c2cc3nccn3c(Nc3ncccc3C(N)=O)n2)c1,100,74,
NC(=O)c1cccnc1Nc1nc(-c2ccc3c(c2)OCO3)cc2nccn12,94.3,24,49
CNC(=O)c1cccnc1Nc1cc(-c2ccccc2)cc2[nH]ccc12,29,1,
COc1ccc(-c2cc3nccn3c(Nc3ncccc3C(N)=O)n2)c(OC)c1,100,80,
CNC(=O)c1cccnc1Nc1nc(-c2ccc(OC)cc2)cc2nccn12,1,0,
CNC(=O)c1cccnc1Nc1nc(-c2ccc(OC)c(OC)c2)cc2nccn12,0,0,
CNC(=O)c1cccnc1Nc1nc(-c2ccccc2)cc2nccn12,24,30,
